Data on nine compounds can be found in US8541002B2, “Vaccine for treatment and prevention of herpes simplex virus infection” (Agenus Inc., priority 2003, dated 2013).

The nature of this series: Turbidity assay for solubility of the peptides. The format is physicochemical. As to conditions: solubility of the antigenic peptides in water or Dimethyl Sulfoxide (DMSO). As to the method: A number of antigenic peptides of the invention were synthesized by chemical synthesis as described in Section 5.1.1.
A turbidity assay was used to assess the solubility of the peptides. Turbidity assays used either a Varian Cary double-beam spectrophotometer, or a Molecular Devices Spectromax absorbance plate reader (for high throughput experiments). The spectrophotometer assay read every 2 nm between 340 nm and 360 nm, and averaged the values. Samples were analyzed in duplicate using a quartz micro-cuvette that holds about 200 uL. The plate reader assay used a 96-well plate format that read every 4 nm between 340 nm and 360 nm and averaged those values. Samples in this assay were run in triplicate.
In the case of `CSCC[C@H](NC(=O)[C@H](Cc1ccccc1)NC(=O)[C@H](C)NC(=O)CNC(=O)[C@@H](NC(=O)[C@H](Cc1ccccc1)NC(=O)[C@H](CCCNC(=N)N)NC(=O)[C@@H]1CCCN1C(=O)[C@H](CC(=O)O)NC(=O)[C@H](CCC(N)=O)NC(=O)[C@@H](NC(=O)[C@H](CO)NC(=O)[C@@H](NC(=O)CNC(=O)[C@@H](N)CCC(=O)O)C(C)C)[C@@H](C)O)C(C)C)C(=O)N[C@@H](C)C(=O)N[C@@H](C)C(=O)N[C@@H](CCCCN)C(=O)N[C@@H](C)C(=O)N[C@@H](C)C(=O)N[C@@H](Cc1c[nH]cn1)C(=O)N[C@@H](CC(C)C)C(=O)N[C@@H](CCC(=O)O)C(=O)N[C@@H](CC(C)C)C(=O)N[C@@H](CCC(=O)O)C(=O)N[C@@H](C)C(=O)N[C@@H](CCCNC(=N)N)C(=O)N[C@@H](CC(C)C)C(=O)N[C@@H](CCCCN)C(=O)N[C@@H](CO)C(=O)N[C@@H](CCCNC(=N)N)C(=O)N[C@@H](C)C(=O)N[C@@H](CCCNC(=N)N)C(=O)N[C@@H](CC(C)C)C(=O)N[C@@H](CCC(=O)O)C(=O)O` [UL14-1], the Solubility result was “water”.
For the compound `CC[C@H](C)[C@H](NC(=O)[C@H](CCCCN)NC(=O)[C@@H](N)C(C)C)C(=O)N[C@@H](CCCNC(=N)N)C(=O)N[C@H](C(=O)N[C@@H](CCC(=O)O)C(=O)N[C@@H](CCC(=O)O)C(=O)N[C@@H](CCC(N)=O)C(=O)N[C@@H](C)C(=O)N[C@@H](C)C(=O)N[C@@H](CCCNC(=N)N)C(=O)N[C@@H](CCCNC(=N)N)C(=O)N[C@@H](CC(=O)O)C(=O)N[C@@H](Cc1ccccc1)C(=O)N[C@@H](CC(C)C)C(=O)N[C@H](C(=O)N[C@@H](C)C(=O)N[C@@H](Cc1c[nH]cn1)C(=O)N[C@@H](CCCNC(=N)N)C(=O)N[C@@H](CCCNC(=N)N)C(=O)N[C@@H](Cc1ccc(O)cc1)C(=O)N[C@@H](CC(C)C)C(=O)N[C@@H](CC(=O)O)C(=O)N1CCC[C@H]1C(=O)N[C@@H](C)C(=O)N[C@@H](CC(C)C)C(=O)N[C@@H](CO)C(=O)N[C@@H](CCC(=O)O)C(=O)N[C@@H](CCCNC(=N)N)C(=O)N[C@@H](CC(C)C)C(=O)N[C@@H](CC(=O)O)C(=O)N[C@@H](C)C(=O)N[C@@H](C)C(=O)N[C@@H](CC(=O)O)C(=O)N[C@@H](CC(=O)O)C(=O)O)[C@@H](C)O)C(C)C` [UL14-2], the Solubility entry is on record as “water”.
For `CSCC[C@H](NC(=O)[C@H](CC(C)C)NC(=O)[C@H](CC(N)=O)NC(=O)[C@H](CCC(=O)O)NC(=O)[C@H](CC(C)C)NC(=O)[C@H](CC(C)C)NC(=O)[C@@H](NC(=O)[C@@H]1CCCN1C(=O)[C@H](Cc1ccccc1)NC(=O)[C@H](CCCNC(=N)N)NC(=O)[C@H](CCCNC(=N)N)NC(=O)[C@@H](NC(=O)[C@@H](NC(=O)[C@H](CCC(=O)O)NC(=O)CNC(=O)[C@@H](N)CC(C)C)C(C)C)[C@@H](C)O)C(C)C)C(=O)N[C@@H](CCCNC(=N)N)C(=O)N[C@@H](C)C(=O)N[C@@H](CC(C)C)C(=O)N[C@@H](CCC(=O)O)C(=O)NCC(=O)N[C@H](C(=O)N[C@@H](C)C(=O)N1CCC[C@H]1C(=O)N[C@@H](CC(=O)O)C(=O)N[C@@H](C)C(=O)N[C@@H](Cc1ccccc1)C(=O)N[C@@H](Cc1ccccc1)C(=O)N[C@@H](Cc1c[nH]cn1)C(=O)N[C@H](C(=O)N[C@@H](C)C(=O)N[C@@H](Cc1ccc(O)cc1)C(=O)N[C@@H](C)C(=O)N[C@@H](CC(C)C)C(=O)N[C@@H](C)C(=O)O)[C@@H](C)O)[C@@H](C)O` [UL17-2], the Solubility result is “water”.
For `CC[C@H](C)[C@H](NC(=O)[C@@H](NC(=O)[C@H](CC(=O)O)NC(=O)[C@H](CCCNC(=N)N)NC(=O)[C@H](C)N)C(C)C)C(=O)N[C@@H](CCCNC(=N)N)C(=O)N[C@@H](CCC(=O)O)C(=O)N[C@H](C(=O)N[C@@H](CC(=O)O)C(=O)N[C@@H](C)C(=O)N[C@@H](Cc1ccccc1)C(=O)N[C@@H](Cc1ccc(O)cc1)C(=O)NCC(=O)N[C@@H](CC(=O)O)C(=O)N[C@@H](CC(C)C)C(=O)N[C@@H](C)C(=O)N[C@@H](CC(=O)O)C(=O)N[C@@H](CC(C)C)C(=O)N[C@@H](CC(=O)O)C(=O)N[C@@H](CC(C)C)C(=O)N[C@@H](CCC(N)=O)C(=O)N[C@@H](CC(C)C)C(=O)N[C@@H](CCCNC(=N)N)C(=O)N[C@@H](C)C(=O)N[C@@H](C)C(=O)N1CCC[C@H]1C(=O)N1CCC[C@H]1C(=O)N[C@@H](C)C(=O)N[C@@H](CC(N)=O)C(=O)N[C@@H](CC(C)C)C(=O)N[C@@H](Cc1ccc(O)cc1)C(=O)N[C@@H](C)C(=O)N[C@@H](CCCNC(=N)N)C(=O)N[C@@H](CC(C)C)C(=O)NCC(=O)O)[C@@H](C)O` [UL36-4] the value was “DMSO”; for `CSCC[C@H](NC(=O)[C@H](CCCNC(=N)N)NC(=O)[C@H](Cc1c[nH]cn1)NC(=O)[C@@H](NC(=O)[C@H](CC(C)C)NC(=O)[C@H](CC(C)C)NC(=O)CNC(=O)[C@@H]1CCCN1C(=O)[C@H](CC(C)C)NC(=O)[C@H](CC(N)=O)NC(=O)[C@H](CCC(=O)O)NC(=O)[C@H](C)NC(=O)[C@H](CC(C)C)NC(=O)[C@H](CC(C)C)NC(=O)[C@H](C)NC(=O)[C@@H](NC(=O)[C@H](CCC(=O)O)NC(=O)[C@@H]1CCCN1C(=O)[C@@H](N)CC(C)C)[C@@H](C)O)C(C)C)C(=O)N[C@@H](C)C(=O)N[C@H](C(=O)N[C@@H](C)C(=O)N[C@@H](CC(C)C)C(=O)N1CCC[C@H]1C(=O)N[C@@H](CCC(=O)O)C(=O)N[C@H](C(=O)N1CCC[C@H]1C(=O)N[C@@H](CCC(=O)O)C(=O)N[C@@H](C)C(=O)N[C@@H](C)C(=O)N[C@@H](Cc1ccccc1)C(=O)N[C@@H](CCCNC(=N)N)C(=O)N[C@@H](CCC(=O)O)C(=O)N[C@@H](CCSC)C(=O)N[C@@H](CC(=O)O)C(=O)O)[C@@H](C)O)C(C)C` [UL37-1], “DMSO”.
For `CC[C@H](C)[C@H](NC(=O)[C@H](Cc1ccc(O)cc1)NC(=O)[C@H](C)NC(=O)[C@H](Cc1ccc(O)cc1)NC(=O)CNC(=O)[C@H](CC(C)C)NC(=O)[C@H](C)NC(=O)[C@H](CCCNC(=N)N)NC(=O)[C@H](CC(C)C)NC(=O)[C@@H](NC(=O)[C@H](CCCNC(=N)N)NC(=O)[C@@H](NC(=O)[C@H](CS)NC(=O)[C@H](Cc1ccccc1)NC(=O)[C@H](CC(C)C)NC(=O)[C@H](Cc1c[nH]cn1)NC(=O)[C@H](C)NC(=O)[C@H](CC(C)C)NC(=O)[C@H](CCCNC(=N)N)NC(=O)[C@H](CC(C)C)NC(=O)[C@H](C)NC(=O)[C@@H]1CCCN1C(=O)[C@H](CCCCN)NC(=O)[C@H](CO)NC(=O)[C@@H]1CCCN1C(=O)[C@H](C)NC(=O)CNC(=O)[C@H](CO)NC(=O)[C@@H]1CCCN1C(=O)[C@H](C)NC(=O)[C@H](C)N)[C@@H](C)CC)C(C)C)C(=O)N[C@@H](CC(N)=O)C(=O)N[C@@H](CO)C(=O)NCC(=O)N[C@@H](CCC(N)=O)C(=O)O` [UL41-1] the value was “water”.
For `CC[C@H](C)[C@H](NC(=O)[C@H](CC(C)C)NC(=O)[C@H](CO)NC(=O)[C@@H](NC(=O)[C@@H](NC(=O)[C@H](Cc1ccc(O)cc1)NC(=O)[C@H](CCCCN)NC(=O)[C@@H](NC(=O)[C@H](Cc1ccc(O)cc1)NC(=O)[C@H](CCCNC(=N)N)NC(=O)[C@H](Cc1c[nH]cn1)NC(=O)[C@H](CCC(=O)O)NC(=O)[C@@H](NC(=O)[C@H](CC(C)C)NC(=O)[C@H](CCC(=O)O)NC(=O)[C@H](C)NC(=O)[C@@H](NC(=O)[C@@H](N)[C@@H](C)O)[C@@H](C)CC)C(C)C)C(C)C)C(C)C)[C@@H](C)CC)C(=O)N[C@@H](CO)C(=O)N1CCC[C@H]1C(=O)N[C@@H](CCCCN)C(=O)N[C@@H](CCC(=O)O)C(=O)N[C@@H](CCCNC(=N)N)C(=O)NCC(=O)N1CCC[C@H]1C(=O)N[C@@H](Cc1c[nH]c2ccccc12)C(=O)N[C@H](C(=O)N[C@@H](CC(C)C)C(=O)N[C@@H](CC(C)C)C(=O)N[C@@H](CCCCN)C(=O)N[C@@H](CCCNC(=N)N)C(=O)N[C@@H](CC(C)C)C(=O)N1CCC[C@H]1C(=O)N[C@H](C(=O)N[C@@H](Cc1ccc(O)cc1)C(=O)O)[C@@H](C)CC)[C@@H](C)O` [UL41-2] the value was “water”; for `CC[C@H](C)[C@H](NC(=O)[C@H](C)NC(=O)[C@H](CCC(=O)O)NC(=O)[C@H](CCCNC(=N)N)NC(=O)[C@H](CC(=O)O)NC(=O)[C@H](Cc1ccc(O)cc1)NC(=O)[C@H](CO)NC(=O)[C@@H]1CCCN1C(=O)[C@H](Cc1ccc(O)cc1)NC(=O)[C@H](CCCNC(=N)N)NC(=O)[C@H](CCCNC(=N)N)NC(=O)[C@H](CCC(N)=O)NC(=O)[C@H](Cc1ccc(O)cc1)NC(=O)[C@H](CCCCN)NC(=O)[C@@H](NC(=O)[C@@H](NC(=O)[C@H](CC(C)C)NC(=O)[C@@H](NC(=O)[C@H](Cc1ccc(O)cc1)NC(=O)[C@H](CCSC)NC(=O)[C@@H](NC(=O)[C@H](CC(N)=O)NC(=O)[C@H](Cc1c[nH]c2ccccc12)NC(=O)[C@H](CC(C)C)NC(=O)[C@H](CC(=O)O)NC(=O)[C@@H](NC(=O)[C@H](C)NC(=O)[C@@H](NC(=O)[C@@H]1CCCN1C(=O)[C@@H](NC(=O)[C@H](Cc1ccccc1)NC(=O)[C@H](Cc1ccc(O)cc1)NC(=O)CN)[C@@H](C)O)[C@@H](C)CC)C(C)C)C(C)C)[C@@H](C)O)C(C)C)C(C)C)C(=O)N[C@H](C(=O)N[C@@H](CC(C)C)C(=O)O)[C@@H](C)O` [UL41-3], “DMSO”; for `CC(C)C[C@H](NC(=O)[C@H](CO)NC(=O)[C@@H]1CCCN1C(=O)[C@H](CC(=O)O)NC(=O)[C@H](CS)NC(=O)[C@H](CC(=O)O)NC(=O)CNC(=O)[C@H](C)NC(=O)[C@@H]1CCCN1C(=O)[C@@H](N)CC(=O)O)C(=O)N[C@@H](Cc1c[nH]cn1)C(=O)N[C@H](C(=O)N[C@@H](CC(C)C)C(=O)N[C@@H](CC(C)C)C(=O)N[C@@H](CCCNC(=N)N)C(=O)N1CCC[C@H]1C(=O)N[C@H](C(=O)N[C@@H](CC(C)C)C(=O)N[C@@H](CC(C)C)C(=O)N1CCC[C@H]1C(=O)N[C@@H](CCCCN)C(=O)N[C@@H](CC(C)C)C(=O)N[C@@H](CC(C)C)C(=O)N[C@H](C(=O)N[C@@H](CCCNC(=N)N)C(=O)N[C@@H](C)C(=O)N1CCC[C@H]1C(=O)N[C@@H](Cc1ccccc1)C(=O)N[C@@H](CCCCN)C(=O)N[C@@H](CO)C(=O)NCC(=O)N[C@@H](C)C(=O)N[C@@H](C)C(=O)N[C@@H](C)C(=O)N[C@@H](C)C(=O)O)C(C)C)[C@@H](C)O)C(C)C` [UL46-1], “water”.
